17 compounds from article PMC4498246, “Synthesis, characterization, and pharmacological evaluation of novel azolo- and azinothiazinones containing 2,4-dihydroxyphenyl substituent as anticancer agents” (Monatshefte Fur Chemie, 2015) can be followed below.

Format in all cases: cell-based
In data set [1] the test system is rat glioma C6 cells. The experiment in a line: MTT proliferation assay, glioma C6. Particulars: 96 h. How it is done:
(§1) The anticancer effect of compounds was tested in non-small cell lung cancer A549, colon carcinoma HT-29, and glioma C6 cells. The cells were exposed to either culture medium as the control culture or the compounds in concentrations of 10, 25, 50, and 100 μmol dm^−3. […] Cisplatin was used as a reference drug.
(§2) Human non-small cell lung cancer A549 (Cat. No. 86012804), human colon adenocarcinoma HT-29 (Cat. No. 91072201), rat glioma C6 (Cat. No. 92090409) cell lines were obtained from the PHE Culture Collections (Public Health England Culture Collections, Porton Down, Salisbury, UK). Primary culture of normal human skin fibroblasts (HSF) was obtained by the outgrowth technique from skin explants of young persons in our laboratory. The cells were kept in the following culture media purchased from Sigma (Sigma Chemicals, St. Louis, MO, USA): A549—3:1 mixture of DMEM and Nutrient mixture F-12 Ham; C6 and HSF—DMEM, HT-29—1:1 mixture of DMEM and Nutrient mixture F-12 Ham. All media were supplemented with 10 % FBS (Sigma), penicillin (100 U cm^−3, Sigma) and streptomycin (100 μg cm^−3, Sigma). The cultures were kept at 37 °C in a humidified atmosphere of 95 % air and 5 % CO2.
(§3) Cancer cells were plated on 96-well microplates at a density of 1 × 10^4 (A549), 3 × 10^4 (HT-29), and 0.5 × 10^4 (C6) cells cm^−3. Next day, the culture medium was removed and the cells exposed to serial dilutions of compounds (10, 25, 50, and 100 μmol dm^−3) in a fresh medium. Cell proliferation was assessed after 96 h using the MTT method in which the yellow tetrazolium salt (MTT) is metabolized by viable cells to purple formazan crystals. The cancer cells were incubated for 3–4 h with MTT solution (5 mg cm^−3). Formazan crystals were solubilized overnight in the SDS buffer (10 % SDS in 0.01 mol dm^−3 HCl) and the product quantified spectrophotometrically by measuring absorbance at the 570 nm wavelength using a Elx800 microplate reader (BIO-TEK, Highland Park, Winooski, Vermont, USA).
(In general: Tetrazolium dyes change colour on reduction, which living cells bring about.)

Data set [2] concerns human colon carcinoma HT-29. Put plainly: MTT proliferation assay, HT-29. Particulars: HT-29 cells, 96 h. Here is the method:
as §1, §2, §3

In data set [3] the test system is normal human skin fibroblasts HSF. Put plainly: LDH cytotoxicity assay, skin fibroblasts. Particulars: 24 h; for Effect on death cells in the culture (protective properties, LDH): 10–100 μmol dm^−3. How it is done:
Additionally, the influence of compounds on normal human skin fibroblast primary culture (HSF) was assessed. HSF cells were exposed to compounds (10–100 μmol dm^−3) for 24 h and the level of lactic dehydrogenase (LDH) released from the damaged cells was measured (LDH method). […] Only compound 2c in all tested concentrations and 2b in the concentration 100 μmol dm^−3 were highly toxic for skin fibroblasts. […] This may indicate protective properties of the compounds.
as §2
Skin fibroblasts HSF were plated on 96-well microplates at a density of 1 × 10^5 cells cm^−3. The following day, the culture medium was removed and the cells exposed to serial dilutions of compounds (10, 25, 50, and 100 μmol dm^−3) diluted in a fresh culture medium with a reduced amount of FBS (2 %). Cytotoxicity was detected after 24 h with the use In Vitro Toxicology Assay Kit, Lactic Dehydrogenase based (Sigma). The assay is based on the reduction of NAD by the action of lactic dehydrogenase (LDH) released from damaged cells. The resulting NADH is utilized in the stoichiometric conversion of a tetrazolium dye. The resulting coloured compound is measured spectrophotometrically. The test was carried out according to the kit procedure. The colour product was quantified spectrophotometrically at 450 nm wavelength using an Elx800 microplate reader.

For data set [4], the system named is human non-small cell lung cancer A549. Put plainly: MTT proliferation assay, A549. Particulars: A549 cells, 96 h. How it is done: as §1, §2, §3

As usually defined, the IC50 is the midpoint of a concentration-inhibition curve. The low end stands for greater potency in that assay, the high end for weaker potency in that assay. On to `Cc1cc(-c2nc3n[nH]cc3c(=O)s2)c(O)cc1O` [1b, 6-(2,4-Dihydroxy-5-methylphenyl)pyrazolo[3,4-d][1,3]thiazin-4(2H)-one], for which the IC50 turned out to be 35.8 µM in data set [1] (Rattus norvegicus) and 109 µM in data set [2] (Homo sapiens).
On to `Cc1cc(-c2nc3[nH]cnc3c(=O)s2)c(O)cc1O` [3b, 5-(2,4-Dihydroxy-5-methylphenyl)imidazo[4,5-d][1,3]thiazin-7(3H)-one], for which the “Effect on death cells in the culture (protective properties, LDH)” value (shortened to “Effect on death cells in the culture”) in data set [3] was “induced a decrease of death cells in the culture”.
For the compound `Cc1cc(-c2nc3[nH]cnc3c(=O)s2)c(O)cc1O` [4a, 5-(2,4-Dihydroxy-5-methylphenyl)imidazo[4,5-d][1,3]thiazin-7(1H)-one], the “Effect on death cells in the culture” value in data set [3] was “induced a decrease of death cells in the culture”.
As for `Cc1c(O)ccc(-c2nc3[nH]cnc3c(=O)s2)c1O` [3a, 5-(2,4-Dihydroxy-3-methylphenyl)imidazo[4,5-d][1,3]thiazin-7(3H)-one], the figures for the IC50 in data set [1] (Rattus norvegicus) and in data set [4] (Homo sapiens) were 33.1 µM and 48.8 µM, respectively. The “Effect on death cells in the culture” value in data set [3] was “induced a decrease of death cells in the culture”.
In turn, `O=c1sc(-c2cc(Cl)c(O)cc2O)nc2[nH]cnc12` [3d, 5-(5-Chloro-2,4-dihydroxyphenyl)imidazo[4,5-d][1,3]thiazin-7(3H)-one] had an IC50 in data set [1] (Rattus norvegicus) of 53.5 µM.
Regarding `CCc1cc(-c2nc3n[nH]cc3c(=O)s2)c(O)cc1O` [1c, 6-(5-Ethyl-2,4-dihydroxyphenyl)pyrazolo[3,4-d][1,3]thiazin-4(2H)-one], the IC50 in data set [1] (Rattus norvegicus) is 23.1 µM; in data set [2] (Homo sapiens), 20.9 µM; in data set [4] (Homo sapiens) it was 32.2 µM. Also, the “Effect on death cells in the culture” value in data set [3] is “induced a decrease of death cells in the culture”.
Consider `CCCc1nn(C)c2c(=O)sc(-c3ccc(O)cc3O)nc12` [2a, 5-(2,4-Dihydroxyphenyl)-1-methyl-3-propylpyrazolo[4,3-d][1,3]thiazin-7(1H)-one], for which the IC50 turned out to be 48.9 µM in data set [1] (Rattus norvegicus) and 56.1 µM in data set [4] (Homo sapiens).
On to `CCc1cc(-c2nc3[nH]cnc3c(=O)s2)c(O)cc1O` [3c, 5-(5-Ethyl-2,4-dihydroxyphenyl)imidazo[4,5-d][1,3]thiazin-7(3H)-one], for which the IC50 in data set [1] (Rattus norvegicus) worked out at 8.2 µM; in data set [2] (Homo sapiens) it was 75.4 µM; in data set [4] (Homo sapiens), 49.8 µM. Further, in data set [3], the “Effect on death cells in the culture” value is “induced a decrease of death cells in the culture”.
Regarding `CCCc1nn(C)c2c(=O)sc(-c3ccc(O)c(C)c3O)nc12` [2b, 5-(2,4-Dihydroxy-3-methylphenyl)-1-methyl-3-propylpyrazolo[4,3-d][1,3]thiazin-7(1H)-one], the “Cytotoxicity (LDH release)” value in data set [3] (concentration 100 μmol dm^−3) is listed as “highly toxic”.
For `Cc1c(O)ccc(-c2nc3n[nH]cc3c(=O)s2)c1O` [1a, 6-(2,4-Dihydroxy-3-methylphenyl)pyrazolo[3,4-d][1,3]thiazin-4(2H)-one], the IC50 was found to be 17.2 µM in data set [1] (Rattus norvegicus), 102 µM in data set [2] (Homo sapiens) and 9.2 µM in data set [4] (Homo sapiens). Besides, in data set [3], the “Effect on death cells in the culture” value was “induced a decrease of death cells in the culture”.
On to `COc1c(O)ccc(-c2nc3n[nH]cc3c(=O)s2)c1O` [1e, 6-(2,4-Dihydroxy-3-methoxyphenyl)pyrazolo[3,4-d][1,3]thiazin-4(2H)-one], for which half-maximal inhibition in data set [1] (Rattus norvegicus) (IC50) required 101 µM.
As to `CCCc1nn(C)c2c(=O)sc(-c3cc(CC)c(O)cc3O)nc12` [2d, 5-(5-Ethyl-2,4-dihydroxyphenyl)-1-methyl-3-propylpyrazolo[4,3-d][1,3]thiazin-7(1H)-one], the IC50 in data set [1] (Rattus norvegicus) amounted to 32.2 µM; in data set [4] (Homo sapiens) it was 35 µM.
For `CCCc1nn(C)c2c(=O)sc(-c3cc(Cl)c(O)cc3O)nc12` [2e, 5-(5-Chloro-2,4-dihydroxyphenyl)-1-methyl-3-propylpyrazolo[4,3-d][1,3]thiazin-7(1H)-one], in data set [1] (Rattus norvegicus), the IC50 is 31.8 µM.
On the same count and under the same terms, for `CCc1cc(-c2nc3nc[nH]c3c(=O)s2)c(O)cc1O` [4b, 5-(5-Ethyl-2,4-dihydroxyphenyl)imidazo[4,5-d][1,3]thiazine-7(1H)-one] the value was 89.7 µM.
On to `CCCc1nn(C)c2c(=O)sc(-c3cc(C)c(O)cc3O)nc12` [2c, 5-(2,4-Dihydroxy-5-methylphenyl)-1-methyl-3-propylpyrazolo[4,3-d][1,3]thiazin-7(1H)-one], for which the IC50 in data set [1] (Rattus norvegicus) was 27.1 µM; in data set [2] (Homo sapiens) it was 157 µM. For the same compound, the “Cytotoxicity (LDH release)” value in data set [3] (all tested concentrations (10–100 μmol dm^−3)) was “highly toxic”.
Regarding `O=c1sc(-c2cc(Cl)c(O)cc2O)nc2nc[nH]c12` [4c, 5-(5-Chloro-2,4-dihydroxyphenyl)imidazo[4,5-d][1,3]thiazine-7(1H)-one], the IC50 stood at 18.3 µM in data set [1] (Rattus norvegicus), 61.4 µM in data set [2] (Homo sapiens) and 46.7 µM in data set [4] (Homo sapiens).
With `N.N.[Cl][Pt][Cl]` [cisplatin, reference compound], the IC50 was determined as 0.4 µM in data set [1], 6 µM in data set [2] and 4.3 µM in data set [4].
